Data as given in patent US11840531B2, “CDK8/19 inhibitors” (JOINT STOCK COMPANY “BIOCAD”, priority 2018, dated 2023).
pIC50: −log10 of the molar value.

How the values were obtained:
[1] = tested on: MV4-11 cells; test: Antiproliferative activity, MV4-11 cells (AlamarBlue); assay type: cell-based; conditions: Homo sapiens, 120 h incubation, read-out: MV-4-11 IC50
Protocol: (§1) Antiproliferative activity of CDK8 inhibitors according to the present invention was measured in a cell-based test on continuous cell cultures MV4-11 (biphenotypic myelomonocytic leukemia, ATCC® CRL-9591™), KG-1 (acute myeloid leukemia, ATCC® CCL-246™) using a vital stain AlamarBlue (ThermoFisher, #DAL1100). The cells were grown in RPMI-1640 (PanEco, #C330p) medium with addition of 10% FBS (Gibco, #16140-071); washed and resuspended in culture medium with 10% FBS (Gibco, #16140-071) in 96-well culture plates (Corning, #3599) with ≈10×10^3 cells in […] of medium per well. The compounds in question were dissolved in DMSO and diluted with a medium with 10% FBS (Gibco, #16140-071) to a final concentration ranging from 0 to 100 μM. […] of diluted compounds were then added to each well (final DMSO concentration was less than 1%) and incubated under 5% CO2 atmosphere at 37° C. for 120 h. After incubating, 15 μL/well of AlamarBlue (ThermoFisher, #DAL1100) reagent was added, contents of plates were mixed in an orbital shaker (Biosan, Latvia) and further incubated for 3-5 h at 37° C. under 5% CO2 atmosphere. Number of living cells was estimated using a microplate spectrophotometer (Tecan Infinite M200Pro, Switzerland) measuring fluorescent signal at the excitation wavelength (λEx) of 540 nm and emission wavelength (λEm) of 590 nm.
(§2) IC50 values were calculated using Magellan 7.2 software (Tecan, Switzerland) approximating experimental points by four-parameter logistic model with the optimization by Levenberg-Marquardt (Table 6).

[2] = Stability of the compounds in human blood plasma; assay type: in vitro ADME; conditions: pooled human blood plasma, 10 μM, 4 hours at 37° C.
Protocol: To assess the blood plasma stability of the compounds, we used pooled human blood plasma taken from ten healthy donors. The initial candidate solution (10 mM in DMSO) was diluted with pooled blood plasma to a concentration of 10 μm (test solution). The test solution was incubated in a dry block thermostat for 4 hours at 37° C. HPLC with Agilent 1200 liquid chromatography system (Agilent, USA) was employed to determine peak areas of the compounds in test samples, said peak areas corresponding to the initial test time (prior to incubation) and the final test time (after incubation in a dry block thermostat for 4 hours at 37° C.), proteins were preliminarily precipitated with acetonitrile. Chromatographic analysis was performed in a gradient elution regime with a flow rate of 1 mL/min Substance amount in % in a sample after thermostatting was determined.
The stability of the compounds was estimated. The compounds described herein show at least 90% chemical stability, i.e. they are chemically stable in human blood plasma (Table 2).

[3] = General cytotoxicity on HepG2 cells; assay type: cell-based; conditions: human, 72 h incubation
Protocol: The CC50 values were determined in the test for General cytotoxicity On HepG2 cells (hepatocellular carcinoma, ATCC® HB-8065™). Cells per well were seeded in 96-well plates (Corning, #3599) at a concentration ≈20×10^3 cells in 100 μL of medium and incubated for 72 h with added compounds within the range of concentrations of 200 to 0.78 μM. Cell viability was assessed using the above method.

[4] = tested on: KG-1 cells; test: Antiproliferative activity, KG-1 cells (AlamarBlue); assay type: cell-based; conditions: Homo sapiens, KG-1, 120 h, 120 h incubation
Protocol: as §1, §2

[5] = target: CDK8/Cyclin C (Homo sapiens (Human), UniProt P49336); test: LanthaScreen binding to recombinant CDK8/Cyclin C; conditions: TR-FRET, Tracer 236 10 nM, CDK8/Cyclin C 5 nM
Chain of CDK8/Cyclin C (P49336 whole entry): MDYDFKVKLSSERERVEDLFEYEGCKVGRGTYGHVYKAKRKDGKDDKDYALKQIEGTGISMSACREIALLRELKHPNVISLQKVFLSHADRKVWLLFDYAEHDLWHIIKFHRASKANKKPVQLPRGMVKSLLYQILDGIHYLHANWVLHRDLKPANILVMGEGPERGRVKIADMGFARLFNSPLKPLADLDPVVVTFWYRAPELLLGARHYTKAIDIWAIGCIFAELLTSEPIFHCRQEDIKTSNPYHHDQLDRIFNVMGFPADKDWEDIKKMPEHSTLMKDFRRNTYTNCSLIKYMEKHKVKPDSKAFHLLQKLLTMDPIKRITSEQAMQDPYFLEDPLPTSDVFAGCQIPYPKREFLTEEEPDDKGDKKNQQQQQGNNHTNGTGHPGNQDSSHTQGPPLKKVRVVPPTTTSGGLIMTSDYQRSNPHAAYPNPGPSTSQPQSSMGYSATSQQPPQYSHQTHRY
Chain of CDK8/Cyclin C (P24863 whole entry partner): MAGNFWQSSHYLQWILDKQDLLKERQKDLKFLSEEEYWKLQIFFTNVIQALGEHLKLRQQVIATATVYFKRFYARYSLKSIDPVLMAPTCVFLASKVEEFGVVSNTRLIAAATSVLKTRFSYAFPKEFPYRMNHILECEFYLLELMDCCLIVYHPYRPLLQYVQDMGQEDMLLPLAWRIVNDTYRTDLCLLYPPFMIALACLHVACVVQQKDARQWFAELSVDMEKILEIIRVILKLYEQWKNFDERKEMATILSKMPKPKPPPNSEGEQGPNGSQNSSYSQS
Protocol: Capability of compounds of the present invention to bind to CDK8 protein was detected using LanthaScreen (ThermoFisher) assay. We detected FRET signal proportional to the amount of CDK8-bound fluorescently-labeled ligand (Tracer 236) that competes with inhibitor for ATP binding site. We carried out the measurements in a 15 μl reaction volume using a 384-well plate (Corning, #CLS4513). Enzyme CDK8/Cyclin C (ThermoFisher, #PR7261B) was mixed with antibodies Anti-His-tag-Biotin (ThermoFisher, #PV6090), Streptavidin-Eu (ThermoFisher, #PV6025), the resulting mixture was added to plate wells (5 MKπ/well). Final concentrations of substances were as follows: CDK8/Cyclin C—5 nM, Streptavidin-Eu—3 nM, Anti-His-tag-Biotin—3 nM. Staurosporine (S4400, Sigma) was used as a reference inhibitor, and 0.1% solution of dimethyl sulphoxide (DMSO) in reaction buffer was used as a blank, the reaction buffer comprised 250 mM HEPES (pH 7.5), 50 mM MgCl2, 5 mM EGTA, and 0.05% Brij-35.
The inhibitors and controls in question were added to corresponding wells (5 μl/well). The plate was incubated at room temperature for 20 minutes. After incubating, 5 μl/well of tracer solution Alexa Fluor-647 (Kinase Tracer 236, ThermoFisher, #PV5592)) was added to the wells. Final concentration of tracer was 10 nM. Reaction buffer, instead of tracer solution, was used as a negative control. The plate was incubated for 40 minutes at 25° C., TR-FRET signal was then measured according to the manufacturer's guidelines on SPARK20 plate reader (Tecan, Switzerland), and the value was converted to the amount of kinase-bound tracer. IC50 values were calculated using SparkControl Magellan 1.2 software (Tecan, Switzerland) approximating experimental points by four-parameter logistic model with the optimization by Levenberg-Marquardt (Table 5).

[6] = Enzyme stability in human liver microsomes (Phase I); assay type: in vitro ADME; conditions: pH 7.4; 0.5 mg/mL pooled human liver microsomes, 10 μM compound, 37° C.
Protocol: Measuring of enzyme stability of the present compounds enabled estimation of their stability towards the action of Phase I biotransformation enzymes.
The rate of enzymatic decomposition of a compound was detected by incubating the reaction mixture in a dry block heater at 37° C.; the reaction mixture contained 0.5 mg/mL of pooled human liver microsomes (XenoTech, USA, cat #H6010), 10 μM of a compound, 2 mM β-nicotinamide adenine dinucleotide (Carbosynth, UK, cat #NN10871) and 4 mM of magnesium chloride in 0.1M sodium phosphate buffer (pH=7.4). The reaction was quenched with acetonitrile (100 μL of acetonitrile/100 μL of the reaction mixture). After quenching, the samples were centrifuged at 10000 rpm for 10 minutes. Supernatant fluid was tested by chromatographic technique using Agilent1200 (Agilent, USA). Chromatographic analysis was performed in a gradient elution regime with a flow rate of 1 mL/min. A graph of the logarithm of substance's peak area as a function of time was made. The dependent factor of the line corresponded to the elimination rate constant K based on which the drug's half-lif½e T and degradation rate CLint were calculated:
Based on the data obtained, candidates' enzyme stability in human liver microsomes was determined.

[7] = Enzyme stability in human liver S9 fractions (Phase II); assay type: in vitro ADME; conditions: pH 7.4; 0.5 mg/mL pooled human liver S9 fractions, 10 μM compound, 37° C.; read-out: Enzyme stability Liver S9 fraction CLint
Protocol: Measuring of enzyme stability of the present compounds enabled estimation of their stability towards the action of Phase II biotransformation enzymes.
Enzyme degradation rate was measured by incubating the reaction mixture in a dry block thermostat at 37° C., said reaction mixture comprising 0.5 mg/mL of pooled human liver S9 fractions (XenoTech, USA, cat #H0610), 10 μM compound, 2 mM β-nicotinamide adenine dinucleotide (Carbosynth, UK, cat #NN10871) and 4 mM magnesium chloride in 0, 1 M sodium-phosphate buffer, pH=7, 4. The reaction was quenched with acetonitrile (100 μL of acetonitrile/100 μL of the reaction mixture). After quenching, the samples were centrifuged at 10000 rpm for 10 minutes. Supernatant fluid was tested by chromatographic technique using Agilent1200 (Agilent, USA). Chromatographic analysis was performed in a gradient elution regime with a flow rate of 1 mL/min A graph of the logarithm of substance's peak area as a function of time was made. The dependent factor of the line corresponded to the elimination rate constant K based on which the drug's half-life T½ and degradation rate CLint were calculated:
Based on the data obtained, candidates' enzyme stability in human liver S9 fractions was determined.

Row | Structure (SMILES) | pIC50 [1] | Chemical stability in human blood plasma 4 h, % [2] [%] | CC50 at 72 h [3] [nM] | pIC50 [4] | pIC50 [5] | microsomal CLint at 10 μM [6] [µL/min/mg] | microsomal CLint at 10 μM [7] [µL/min/mg]
1 | CN1CCN(C(=O)c2cnc3c(N)ncc(-c4ccc(-c5cnn(CC(=O)N(C)C)c5)cc4)c3c2)CC1 [Compound 3.49, 2-(4-(4-(8-amino-3-(4-methylpiperazine-1-carbonyl)-1,7-naphthyridine-5-yl)phenyl) -1H-pyrazole-1-yl)-N,N-dimethylacetamide] | 8.55 | 100.0 | > 100000 | 7.89 | 8.73 | 7 | 1.4
2 | CN1CCN(C(=O)Cn2cc(-c3ccc(-c4cnc(N)c5ncc(C(=O)N6CCC6)cc45)cc3)cn2)CC1 [Compound 3.53, 2-(4-(4-(8-amino-3-(azetidine-1-carbonyl)-1,7-naphthyridine-5-yl)phenyl)-1H-pyrazole-1-yl)-1-(4-methylpiperazine-1-yl)ethan-1-one] | 8.89 | 100.0 | ~90000 | 8.62 | 9.00 | 7.8 | 7.1
3 | CN(C)C(=O)Cn1cc(-c2ccc(-c3cnc(N)c4ncc(C(=O)NC5CC5)cc34)cc2)cn1 [Compound 3.46, 8-amino-N-cyclopropyl-5-(4-(1-(2-(dimethylamino)-2-oxoethyl)-1H-pyrazole-4-yl)phenyl)-1,7-naphthyridine-3-carboxamide] | 9.15 | 96.5 | > 100000 | 8.96 | 8.95 | 2.6 | 0.5
4 | CN1CCN(C(=O)Cn2cc(-c3ccc(-c4cnc(N)c5ncc(C(=O)NC6CC6)cc45)cc3)cn2)CC1 [Compound 3.47, 8-amino-N-cyclopropyl-5-(4-(1-(2-(4-methylpiperazin-1-yl)-2-oxoethyl)-1H-pyrazole-4-yl)phenyl)-1,7-naphthyridine-3-carboxamide] | 8.96 | 96.5 | > 100000 | 8.48 | 8.96 | 5.6 | 1.5
